In patent publication US8207211B2, “Photosensitizers for targeted photodynamic therapy” (The General Hospital Corporation, priority 2005, dated 2012):

Key:
P. aeruginosa = experiment: Photodynamic inactivation (PDI), CFU survival, 405-nm light (Example 8); assay type: cell-based, Pseudomonas aeruginosa
Source text: Four microbial species were used in this study. Briefly, Escherichia coli was purchased from ATCC (ATCC #25922), Pseudomonas aeruginosa, two clinical isolates, were obtained; UCBP PA 14 from L. Rahme (Massachusetts General Hospital) and PA 767K from Kim Lewis (Tufts University), slime deficient mutant of Staphylococcus aureus was obtained from Gerald B Pier (Channing Laboratories). Yeast strain Candida albicans was purchased from ATCC (ATCC #18804). Exponential cultures obtained by reculturing stationary overnight cultures were used for all experiments. Bacteria were grown at 37° C. in BHI broth to a cell density of 10^8 cells per mL. C. albicans was grown 37° C. in YM medium to 10^7 cells/mL.
Six fullerene derivatives (NI1-3 and CI1-3) were evaluated. […] Concentration of fullerene derivatives used in the experiments varied between 1 and 100 μM.
Fullerene derivatives were mixed with microbial suspensions and incubated in the dark at room temperature for 10 minutes. Excess fullerenes were either washed out of, or left in, the suspensions before illumination. […]
During illumination, aliquots of 20 μL were taken to determine the colony-forming units. […] Colonies were counted and survival fraction was determined as percent of survival compared to control. […]

[1] = test system: L929 murine fibroblast line; experiment: Mammalian cell toxicity, MTT viability assay after illumination; assay type: cell-based, mouse
Source text: Experiments to test the effect of functionalized fullerenes on mammalian cells can be performed in a suitable mammalian cell line. One such cell line is the L929 murine fibroblast line (ATCC #CCL1), a spontaneously transformed immortalized cell line established from the normal subcutaneous areolar and adipose tissue of a male C3H/An mouse (Earle, W. R., Schilling, E. L., Stark, T. H., Straus, N. P., Brown, M. F., and Shelton, E. (1943). Production of malignancy in vitro. IV. The mouse fibroblast cultures and changes seen in the living cells. J. Natl. Cancer Inst. 4, 165-212). In a suitable assay, these cells were cultured in Dulbecco's modified Eagle's medium (Sigma) at 37° C. in a humidified atmosphere containing 5% CO2. The medium is preferably modified by using 4 mM L-glutamine (containing 1.5 g/l sodium bicarbonate and 4.5 g/l glucose), 10% fetal bovine serum (FBS), 100 U/ml penicillin, and […] streptomycin. Cells were plated in 96-well cell culture plates, at a density of about 300 cells/well, and are allowed to attach for 24 hr.
Fullerenes and other PS, e.g., TBO, were added at a concentration of about 10 μM in 200 μl complete medium per well. After 10 min, fresh medium is added, and the cultures were illuminated with white light (for fullerenes) or with red light (for TBO). At the completion of the illumination period, cells were returned to the incubator for 24 hr. Cell viability can be determined, for example, by using the MTT-microculture tetrazolium assay, a method of assessing cellular response to PDT (Merlin, J. L., Azzi, S., Lignon, D., Ramacci, C., Zeghari, N., and Guillemin, F. (1992). MTT assays allow quick and reliable measurement of the response of human tumour cells to photodynamic therapy. Eur. J. Cancer 28A, 1452-1458. This assay involves the reduction of a colorless substrate, i.e., 3-[4,5-Dimethylthiazol-2-yl]-diphenyltetrazolium bromide (Sigma, St. Louis, […].) to an insoluble dark-blue formazan product which is formed in proportion to the amount of succinate dehydrogenase activity in the mitochondria of living cells. After incubation with MTT for periods ranging from 4 to 8 hr, the medium was aspirated from each well, and […] DMSO is added. The absorbance at 570 nm was read by a microplate reader, e.g., a Spectra Max™ 340 PC (Molecular Devices, Sunnyvale, Calif.). The fraction of cells surviving was calculated by dividing the mean absorbances of formazan produced from PDT-treated cells by the mean absorbances from dark controls incubated with PS and kept at room temperature for periods of time equal to the irradiation times.

S. aureus = experiment: Photodynamic inactivation (PDI), CFU survival, white light (red light for TBO); assay type: cell-based, Staphylococcus aureus; details: 1 μM

## C[N+]1(C)Cc2c(c3c4ccc5c6ccc7c8ccc9c%10c%11c%12c(c2c2c3c3c4c5c4c6c7c5c8c9c%11c6c(c%122)c3c4c56)C2C[N+](C)(C)CC%102)C1 (stereo not drawn) [CI2]
P. aeruginosa; 10-20 μM, 16 J/cm^2 of 405-nm light
  killing of P. aeruginosa: high levels of killing
P. aeruginosa; illumination with versus without a wash, 405 nm
  effect of a wash on killing of P. aeruginosa: more killing after a wash
[1]; 10 μM, 10 min, white light up to 50 J/cm^2
  toxicity to L929 mammalian cells at fluences used for PDI of pathogens: not killed
[1]; L929, high fluences
  toxicity to mammalian cells at high fluences relative to TBO: considerably less toxic
S. aureus; 10 min, white light up to 50 J/cm^2
  PDT activity against S. aureus: effectively killed
S. aureus; with a wash, white light
  light sufficient to kill 4-5 logs of S. aureus: 2 J/cm^2
